According to patent US7625713B2, “Process for identifying a ligand that binds to the NEP binding site for the SMR1 pentapeptide” (Institut Pasteur, priority 2000, dated 2009):
Where a SMILES comes first, the peptide text is derived from it.

Key:
male SPF Wistar/AF rats = assay: Aversive light stimulus avoidance test (ALSAT); type: in vivo, rat; conditions: 50 μg/kg, I.V.; for Total number of times the two levers were pressed / Number of times AL pressed / Number of times IL pressed: mean ± SEM; for Number of times AL pressed: active lever; for Number of times IL pressed: inactive lever
Protocol: Twenty four male SPF Wistar/AF rats weighing from 300 to 320 g were used. Upon reception, the rats were weighed, marked and distributed, in groups of 3, into F-type polycarbonate cages. The animals were housed in an air-conditioned animal house at a temperature of 22-24° C. Food and drink was available to the rats ad libitum. They were subjected to a 12-hour light/dark cycle (light from 8 pm to 8 am).
After a period of familiarization with the laboratory conditions of one week, the 24 rats were randomly divided into 2 groups (n=12). The rats from the various groups were all handled in the same way and under the same conditions.
The rat is placed in the cage for 20 minutes and the number of times each lever is pressed is counted during the experiment.
This model uses the aversion of the rat to a brightly lit environment. During the familiarization session and the learning session, the rat learns to control the aversive light environment of the test device in the context of operant conditioning: the animal learns to press the active lever in order to obtain periods of darkness.
The learning test is made up over two sessions: • Session 1, familiarization with the experimental device (day 1); • Session 2, learning test (day 2).
The QHNPR (SEQ ID NO: 2) peptide is suspended in a proportion of 500 μg per 5 ml of 0.01 N acetic acid, and then diluted with PBS in order to be administered at the dose of 50 μg/kg, via the i.v. route, in the dorsal caudal vein of the rat, 1 minute before the test.
A two-sided probability unpaired t-test was used to compare the lever-pressing activity of the two groups of rats.
The results are expressed as mean±standard error of the mean (SEM).

NEP [1] = biological target: T1, NEP (Rattus norvegicus, UniProt P07861); assay: 3H-Substance P hydrolysis by rat spinal cord slices; type: biochemical; conditions: 10 μM combined with GEMSA (10 μM) and DPPIV inhibitor (10 μM), 25° C., read-out: inhibition of Substance P degradation
T1 construct: incubations of membrane and fresh tissue slice preparations from nervous tissues; from tissue; host or cells: dorsal spinal cord of male Wistar rats (fresh slices or 100 000 x g membrane fraction)
T1 sequence (P07861 1-750): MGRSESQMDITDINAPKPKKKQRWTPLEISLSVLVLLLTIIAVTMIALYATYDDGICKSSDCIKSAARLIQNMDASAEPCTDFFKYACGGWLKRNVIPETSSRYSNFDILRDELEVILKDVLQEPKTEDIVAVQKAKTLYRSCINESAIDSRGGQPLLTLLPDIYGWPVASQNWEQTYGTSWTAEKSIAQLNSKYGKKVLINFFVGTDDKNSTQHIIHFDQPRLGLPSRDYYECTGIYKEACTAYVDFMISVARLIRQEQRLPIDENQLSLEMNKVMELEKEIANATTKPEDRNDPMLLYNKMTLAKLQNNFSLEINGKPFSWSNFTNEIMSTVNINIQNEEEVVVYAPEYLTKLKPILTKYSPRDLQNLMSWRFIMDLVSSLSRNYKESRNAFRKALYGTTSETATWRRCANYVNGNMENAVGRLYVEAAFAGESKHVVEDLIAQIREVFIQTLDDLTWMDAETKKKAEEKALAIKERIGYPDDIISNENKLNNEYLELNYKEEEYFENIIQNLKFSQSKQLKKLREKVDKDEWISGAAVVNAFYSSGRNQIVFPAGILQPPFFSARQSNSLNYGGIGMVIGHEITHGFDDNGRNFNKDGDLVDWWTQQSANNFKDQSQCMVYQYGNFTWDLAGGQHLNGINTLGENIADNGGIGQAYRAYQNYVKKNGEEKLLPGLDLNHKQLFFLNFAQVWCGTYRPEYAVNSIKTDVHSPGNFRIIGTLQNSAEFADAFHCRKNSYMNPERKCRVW
Protocol: For the experiments of analysis of the NEP peptidase activity, an ex vivo model using incubations of membrane and fresh tissue slice preparations from nervous tissues that are known to be appropriate for exploring NEP peptidase activity: i.e. the dorsal zone of rat spinal cord, was first developed. […] (NEN, 12.5-25 nM) were used.
The objective was to measure the NEP-specific endoproteolysis of these substrates.

NEP [2] = biological target: T1, NEP; assay: Met-enkephalinase activity of rat spinal cord slices, Met-enkephalin RIA; type: biochemical; conditions: 10 μM, fresh spinal cord tissue, 20 min at 25° C.
Protocol: FIG. 2-A: […] The organs are rapidly removed, dissected on ice, freed of nerve fibers and of adipose tissues and then washed in cold oxygenated glucose- and bicarbonate-containing Krebs Ringer (KRBG) solution, whose composition is the following: 120 mM NaCl-5 mM KCl-1.2 mM KH2PO4-27.5 mM NaHCO3-2.6 mM CaCl2-0.67 mM MgSO4-5.9 mM glucose. The slices of tissues are prepared either manually with the aid of a scalpel (1-2 mm thick), or mechanically with the aid of a “Tissue Chopper” (1 mm thick). Slices are then dispersed into reaction tubes where they are subjected to three successive washes in ice-cold oxygenated KRBG. […] For the experiments of analysis of the NEP peptidase activity, an ex vivo model using incubations of membrane and fresh tissue slice preparations from nervous tissues that are known to be appropriate for exploring NEP peptidase activity: i.e. the dorsal zone of rat spinal cord, was first developed. The metabolism rate of the NEP-sensitive peptides was measured using the both NEP substrates involved in the signaling of the nociceptive response: the neuropeptides Met-enkephalin and Substance P. […] (NEN, 12.5-25 nM) were used. The objective was to measure the NEP-specific endoproteolysis of these substrates. […] Furthermore, for studying the functional role of […] NO: 2), the reaction was carried out in the presence of the SMR1-peptide alone or combined with specific inhibitors of membrane peptidases which could inactivate the […] […] Herein, a competitive RIA system has been used: the quantity of radioactive antigen bound to the antibody decreases in a manner inversely proportional to the quantity of antigen contained in the standard solution or in the sample. […] The activity of enkephalinase NEP is monitored by quantification of the disappearance of the initial Met-enkephalin substrate. […] The radiolabeled antigen is iodinated Met-enkephalin (^125I-Met-Enk enkephalin) with a specific radioactivity estimated at 3000 Ci/mmol. […] After centrifugation, the bound radioactivity of the precipitate is quantified using a gamma-spectrometer.

N=C(N)NCCC[C@H](NC(=O)[C@@H]1CCCN1C(=O)[C@H](CC(N)=O)NC(=O)[C@H](Cc1c[nH]cn1)NC(=O)[C@@H](N)CCC(N)=O)C(=O)O [sialorphin, Gln-His-Asn-Pro-Arg] (H-QHNPR-OH; N-terminus and C-terminus assumed)
Total number of times the two levers were pressed (male SPF Wistar/AF rats; Session 1, 1 minute before the test): 10.08 ± 1.98 | Number of times AL pressed (male SPF Wistar/AF rats; Session 1): 4.83 ± 1.02 | Number of times IL pressed (male SPF Wistar/AF rats; Session 1): 5.25 ± 1.14 | Number of times AL pressed (male SPF Wistar/AF rats; Session 2): 2.67 ± 0.47 | Number of times IL pressed (male SPF Wistar/AF rats; Session 2): 2.58 ± 0.94 | Total number of times the two levers were pressed (male SPF Wistar/AF rats; Session 2): 5.25 ± 5.09 | Distinction between the levers (male SPF Wistar/AF rats; both test sessions): no distinction between the two levers | inhibition at 10 µM (NEP [1]): > 90% | protection of Met-enkephalin from degradation (NEP [2]): 96%
